According to patent publication US9532519B2, “Plant growth regulator and use thereof” (Japan Science and Technology Agency, priority 2006, dated 2017):

Test system: Arabidopsis
Experiment: Influence 1 of treatment condition on seeds of Arabidopsis (concentration and duration from sowing)
Type: in vivo
Protocol: Seeds of Arabidopsis were sown in pods filled with soil immersed in 0 mM-, 0.01 mM-, 0.2 mM-, 1 mM-, 2 mM-, and 5 mM-GSSG.
Arabidopsis was cultivated under the same conditions as those described in <1. Influence of oxidized glutathione on growth of Arabidopsis> except for the above condition.
The seed weight per one pod, obtained from Arabidopsis thus cultivated (three plants in each pod), was measured. The results of the measurement are shown in FIGS. 10-12. n is the number of plants that can be finally harvested.

oxidized glutathione [GSSG]
seed weight per pod: effective concentration (supplying GSSG for a long time): GSSG with low concentration is more effective than GSSG with high concentration | seed weight per pod: effective concentration (supplying GSSG for a short time): GSSG with high concentration is more desirable
